The target of assay [1] is cGMP-inhibited 3',5'-cyclic phosphodiesterase 3A (Homo sapiens, UniProt Q14432). As to the kind of experiment: PDE Enzyme Assays Using [3H]cAMP as Substrate: The following phosphodiesterase activities are measured using [3H]cAMP as reaction substrate: human PDE3A (catalytic domain) and human PDE4D. Both enzymes are cloned and purified following standard procedures. The assay buffer is prepared to give a final concentration in the assay of 50 mM Tris-HCl, 8.3 mM MgCl2, 1.7 mM ethylenediaminetetraacetic acid (EDTA) and 0.1% Bovine serum albumin at pH 7.5. Final enzyme concentrations are 0.008 and 0.021 nM for PDE3A and PDE4D, respectively. Reactions are started by addition of the substrate, [3H]cAMP, to give a final concentration of 47 nM.

Assay [2] deals with Rod cGMP-specific 3',5'-cyclic phosphodiesterase alpha/beta (Homo sapiens, UniProt P16499+P35913). Kind of assay: PDE Enzyme Assays Using [3H]cGMP as Substrate: The following phosphodiesterase activities are measured using [3H]cGMP as reaction substrate: human PDE6A/6B. The catalytic active form of human PDE6 is a dimer composed of a α (human PDE6A) and β subunits (human PDE6B). The dimer of human PDE6A/6B is produced by the coexpression and purification strategy, using two purification steps, i.e., NiNTA and anti-FLAG Sepharose chromatography. The assay buffer is prepared to give a final concentration in the assay of 50 mM Tris-HCl, 8.3 mM MgCl2, 1.7 mM EDTA and 0.1% Bovine serum albumin at pH 7.5. The final enzyme concentration is 5 nM. The reactions are started by addition of the substrate, [3H]cGMP, to give a final concentration of 80 nM. The assay is classed as protein-complex assay.

Assay [3] addresses Dual specificity calcium/calmodulin-dependent 3',5'-cyclic nucleotide phosphodiesterase 1A (Homo sapiens, UniProt P54750). Kind of assay: Ca2+-Calmodulin Dependent PDE Enzyme Assays: PDE1B, PDE1A, and PDE1C are cloned and purified following standard protein generation procedures. The assay buffer is prepared to give a final concentration in the assay of 50 mM Tris-HCl, 50 mM MgCl2, 4 mM CaCl2, 0.1% Bovine serum albumin and 6 U/ml Calmodulin in water, at pH 7.5. The final enzyme concentration is 0.25, 0.074 and 0.0012 nM, for PDE1A, PDE1B and PDE1C respectively. The reactions are started by addition of the substrate, [3H]cAMP, to give a final concentration of 47 nM.

Sequence of cGMP-inhibited 3',5'-cyclic phosphodiesterase 3A (Q14432 whole entry, the tested form may be a part): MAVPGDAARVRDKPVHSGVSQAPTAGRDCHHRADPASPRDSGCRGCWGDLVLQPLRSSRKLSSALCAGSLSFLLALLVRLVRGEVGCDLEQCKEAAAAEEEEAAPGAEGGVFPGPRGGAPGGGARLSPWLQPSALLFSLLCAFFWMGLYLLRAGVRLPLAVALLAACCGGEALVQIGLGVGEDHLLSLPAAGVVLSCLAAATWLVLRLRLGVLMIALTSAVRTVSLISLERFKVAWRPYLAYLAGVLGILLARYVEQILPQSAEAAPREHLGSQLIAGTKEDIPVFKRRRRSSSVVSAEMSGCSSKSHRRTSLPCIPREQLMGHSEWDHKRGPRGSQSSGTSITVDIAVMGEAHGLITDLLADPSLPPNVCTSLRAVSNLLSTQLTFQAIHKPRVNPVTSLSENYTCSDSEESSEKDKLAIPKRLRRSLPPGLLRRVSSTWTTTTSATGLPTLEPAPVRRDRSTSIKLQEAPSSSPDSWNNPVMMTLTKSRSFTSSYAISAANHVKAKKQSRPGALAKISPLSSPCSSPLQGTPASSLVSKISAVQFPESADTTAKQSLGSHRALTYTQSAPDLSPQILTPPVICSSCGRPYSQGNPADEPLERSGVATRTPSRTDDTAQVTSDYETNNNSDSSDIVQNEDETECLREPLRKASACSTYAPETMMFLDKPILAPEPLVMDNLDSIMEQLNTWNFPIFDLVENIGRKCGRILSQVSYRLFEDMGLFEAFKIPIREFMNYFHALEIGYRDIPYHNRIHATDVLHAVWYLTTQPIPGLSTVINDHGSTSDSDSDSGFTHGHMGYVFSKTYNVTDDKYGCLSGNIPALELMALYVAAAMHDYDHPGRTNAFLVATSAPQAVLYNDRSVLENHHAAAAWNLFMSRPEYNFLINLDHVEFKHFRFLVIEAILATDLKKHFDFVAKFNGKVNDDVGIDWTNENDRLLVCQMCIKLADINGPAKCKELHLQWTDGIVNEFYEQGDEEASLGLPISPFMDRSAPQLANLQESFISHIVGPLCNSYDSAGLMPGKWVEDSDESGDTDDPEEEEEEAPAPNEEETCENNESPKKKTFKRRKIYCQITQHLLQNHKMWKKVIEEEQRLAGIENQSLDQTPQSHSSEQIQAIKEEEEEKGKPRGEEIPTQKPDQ
Sequence of Dual specificity calcium/calmodulin-dependent 3',5'-cyclic nucleotide phosphodiesterase 1A (P54750 whole entry): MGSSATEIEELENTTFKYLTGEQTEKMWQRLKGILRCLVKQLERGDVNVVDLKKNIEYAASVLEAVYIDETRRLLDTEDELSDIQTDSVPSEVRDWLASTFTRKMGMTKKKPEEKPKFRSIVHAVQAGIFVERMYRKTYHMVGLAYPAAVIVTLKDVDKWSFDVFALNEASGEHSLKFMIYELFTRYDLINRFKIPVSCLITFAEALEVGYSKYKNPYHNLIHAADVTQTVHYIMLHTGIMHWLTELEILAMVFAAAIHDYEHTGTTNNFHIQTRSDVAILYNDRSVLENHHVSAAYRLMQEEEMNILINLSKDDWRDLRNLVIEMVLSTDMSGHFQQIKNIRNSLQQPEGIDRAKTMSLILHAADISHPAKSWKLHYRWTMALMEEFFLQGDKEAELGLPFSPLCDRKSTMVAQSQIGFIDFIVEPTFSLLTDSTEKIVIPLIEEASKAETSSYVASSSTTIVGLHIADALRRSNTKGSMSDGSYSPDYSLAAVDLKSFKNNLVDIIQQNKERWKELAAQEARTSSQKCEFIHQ
Sequence of Rod cGMP-specific 3',5'-cyclic phosphodiesterase alpha/beta (P35913 whole entry): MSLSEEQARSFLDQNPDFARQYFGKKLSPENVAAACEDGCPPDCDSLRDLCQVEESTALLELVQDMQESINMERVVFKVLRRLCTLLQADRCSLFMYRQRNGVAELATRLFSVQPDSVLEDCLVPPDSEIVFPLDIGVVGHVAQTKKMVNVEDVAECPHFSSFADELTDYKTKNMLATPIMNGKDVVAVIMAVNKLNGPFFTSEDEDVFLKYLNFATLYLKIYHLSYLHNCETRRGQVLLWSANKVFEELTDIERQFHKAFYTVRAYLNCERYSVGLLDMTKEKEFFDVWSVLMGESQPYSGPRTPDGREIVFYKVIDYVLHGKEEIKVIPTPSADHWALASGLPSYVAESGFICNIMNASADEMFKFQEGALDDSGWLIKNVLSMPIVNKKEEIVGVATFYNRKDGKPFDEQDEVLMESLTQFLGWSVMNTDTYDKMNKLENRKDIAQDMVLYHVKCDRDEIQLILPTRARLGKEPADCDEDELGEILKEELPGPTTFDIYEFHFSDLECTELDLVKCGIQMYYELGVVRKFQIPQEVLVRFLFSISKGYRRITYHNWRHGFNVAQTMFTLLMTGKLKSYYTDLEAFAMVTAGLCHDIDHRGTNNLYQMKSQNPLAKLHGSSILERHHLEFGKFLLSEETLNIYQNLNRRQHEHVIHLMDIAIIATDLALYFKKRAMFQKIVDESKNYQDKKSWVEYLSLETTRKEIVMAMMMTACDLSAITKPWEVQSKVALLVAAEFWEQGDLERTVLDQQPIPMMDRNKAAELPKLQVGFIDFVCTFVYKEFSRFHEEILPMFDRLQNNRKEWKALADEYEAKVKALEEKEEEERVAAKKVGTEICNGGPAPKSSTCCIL
Sequence of Rod cGMP-specific 3',5'-cyclic phosphodiesterase alpha/beta (P16499 whole entry): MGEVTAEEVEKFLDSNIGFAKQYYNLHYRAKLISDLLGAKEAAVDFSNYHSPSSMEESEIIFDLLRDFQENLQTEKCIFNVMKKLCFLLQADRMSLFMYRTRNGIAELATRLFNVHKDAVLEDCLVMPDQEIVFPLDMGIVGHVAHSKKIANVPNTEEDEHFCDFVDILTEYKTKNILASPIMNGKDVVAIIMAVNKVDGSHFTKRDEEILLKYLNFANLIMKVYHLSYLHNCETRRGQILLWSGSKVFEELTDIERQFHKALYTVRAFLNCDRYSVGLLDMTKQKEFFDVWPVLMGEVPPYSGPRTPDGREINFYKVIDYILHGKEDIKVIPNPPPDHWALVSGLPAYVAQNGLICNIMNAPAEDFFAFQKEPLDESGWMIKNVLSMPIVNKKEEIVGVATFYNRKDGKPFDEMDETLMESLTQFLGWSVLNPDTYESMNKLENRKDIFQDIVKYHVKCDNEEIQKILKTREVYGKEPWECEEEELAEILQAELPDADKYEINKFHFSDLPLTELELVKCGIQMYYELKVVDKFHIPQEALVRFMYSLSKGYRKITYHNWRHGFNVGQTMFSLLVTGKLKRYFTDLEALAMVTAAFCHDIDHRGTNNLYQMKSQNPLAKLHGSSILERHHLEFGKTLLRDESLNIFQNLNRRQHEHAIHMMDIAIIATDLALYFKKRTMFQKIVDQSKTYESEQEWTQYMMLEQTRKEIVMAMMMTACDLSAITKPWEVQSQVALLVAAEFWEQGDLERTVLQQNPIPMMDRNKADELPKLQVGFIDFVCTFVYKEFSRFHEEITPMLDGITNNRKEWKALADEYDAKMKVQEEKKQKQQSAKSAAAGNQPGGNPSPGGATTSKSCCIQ

`CCCCn1c(=O)c2nnc(C3(C4CC4)CC3)n2c2ncc(CO)cc21`: the IC50 is > 100000 nM in assay [1], 3850 nM in assay [2] and 0.996 nM in assay [3].
The matching figures for `CCCCn1c(=O)c2nnc(C3(C4CC4)CC3)n2c2ncc(CC)cc21`: > 100000 nM, 982 nM and 0.214 nM.

In general, IC50 refers to the concentration that gives 50% inhibition.

The record behind these values is ChEMBL document CHEMBL5728860, “[1,2,4]Triazolo[4,3-A]pyrazin-6(5H)-one derivatives” (2021).
